# Assay results as given in PubChem BioAssay (NCI).
#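 Cultured in 96-well plates, cells were exposed to test compound for 48 hours across five concentrations. TGI: total growth inhibition.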
# Tested on: KM20L2 colon
# Test: growth of human tumour cells (NCI), 48 h
row,Compound,TGI
1,COc1ccc(N=Cc2ccc(N(CCC#N)S(=O)(=O)c3ccccc3)cc2)cc1,> 100 µM
2,CCOC(=O)/C=C/n1c2ccccc2c(=O)c2ccccc21,> 100 µM
3,Nc1nc(SCc2ccc([N+](=O)[O-])cc2)nc2c1ncn2C1OC(CO)C(O)C1O (stereo unspecified),> 100 µM
4,C=CCC(N(C)C(=O)[C@H](Cc1ccccc1)NC(=O)OCc1ccccc1)P(=O)(Oc1ccccc1)Oc1ccccc1 (stereo partly specified),> 100 µM

# Tested on: LXFL 529 NSCLC
# Test: growth of human tumour cells (NCI), 48 h
row,Compound,TGI
1,CN(C)C(=S)/N=c1\ssc(=S)n1Cc1ccccc1,> 100 µM
2,Cc1ccc(N2C(=O)CS/C2=C(\C#N)c2nc3ccccc3[nH]2)cc1,> 100 µM
3,CCOc1ccc(/C(Cl)=C(\C=O)c2ccc(OC)c(OC)c2)cc1OCC,> 100 µM
4,COC(=O)C(C#CCCCCC#CC(NC(=O)OCc1ccccc1)(C(=O)OC)C(F)(F)F)(NC(=O)OCc1ccccc1)C(F)(F)F (stereo unspecified),> 100 µM
5,N#C/C(c1nc2ccccc2[nH]1)=c1\s/c(=C/c2ccc(Cl)cc2)c(=O)n1-c1ccccc1,> 100 µM
6,COC(=O)CC1NC(=O)[C@@H]1C(C)O (stereo partly specified),> 100 µM
7,O=C1c2ccccc2OP(=O)(OCC(F)(F)F)OC1(C(F)(F)F)C(F)(F)F (stereo unspecified),> 100 µM
8,COc1ccc(N=Cc2ccc(N(CCC#N)S(=O)(=O)c3ccccc3)cc2)cc1,> 100 µM
9,CCOC(=O)/C=C/n1c2ccccc2c(=O)c2ccccc21,> 100 µM
10,Nc1nc(SCc2ccc([N+](=O)[O-])cc2)nc2c1ncn2C1OC(CO)C(O)C1O (stereo unspecified),> 100 µM
11,C=CCC(N(C)C(=O)[C@H](Cc1ccccc1)NC(=O)OCc1ccccc1)P(=O)(Oc1ccccc1)Oc1ccccc1 (stereo partly specified),> 100 µM

# Tested on: MDA-N
# Test: growth of human tumour cells (NCI), 48 h
row,Compound,TGI
1,CN(C)C(=S)/N=c1\ssc(=S)n1Cc1ccccc1,1.21 µM

# Tested on: OVCAR-8 ovarian
# Test: growth of human tumour cells (NCI), 48 h
row,Compound,TGI
1,CN(C)C(=S)/N=c1\ssc(=S)n1Cc1ccccc1,17.7 µM
2,Cc1ccc(N2C(=O)CS/C2=C(\C#N)c2nc3ccccc3[nH]2)cc1,> 100 µM
3,CCOc1ccc(/C(Cl)=C(\C=O)c2ccc(OC)c(OC)c2)cc1OCC,> 100 µM
4,COC(=O)C(C#CCCCCC#CC(NC(=O)OCc1ccccc1)(C(=O)OC)C(F)(F)F)(NC(=O)OCc1ccccc1)C(F)(F)F (stereo unspecified),> 100 µM
5,N#C/C(c1nc2ccccc2[nH]1)=c1\s/c(=C/c2ccc(Cl)cc2)c(=O)n1-c1ccccc1,> 100 µM
6,COC(=O)CC1NC(=O)[C@@H]1C(C)O (stereo partly specified),> 100 µM
7,O=C1c2ccccc2OP(=O)(OCC(F)(F)F)OC1(C(F)(F)F)C(F)(F)F (stereo unspecified),> 100 µM
8,COc1ccc(N=Cc2ccc(N(CCC#N)S(=O)(=O)c3ccccc3)cc2)cc1,> 100 µM
9,CCOC(=O)/C=C/n1c2ccccc2c(=O)c2ccccc21,> 100 µM
10,Nc1nc(SCc2ccc([N+](=O)[O-])cc2)nc2c1ncn2C1OC(CO)C(O)C1O (stereo unspecified),> 100 µM
11,C=CCC(N(C)C(=O)[C@H](Cc1ccccc1)NC(=O)OCc1ccccc1)P(=O)(Oc1ccccc1)Oc1ccccc1 (stereo partly specified),> 100 µM

# Tested on: RPMI-8226 leukemia
# Test: growth of human tumour cells (NCI), 48 h
row,Compound,TGI
1,CN(C)C(=S)/N=c1\ssc(=S)n1Cc1ccccc1,31.6 µM
2,Cc1ccc(N2C(=O)CS/C2=C(\C#N)c2nc3ccccc3[nH]2)cc1,> 100 µM
3,CCOc1ccc(/C(Cl)=C(\C=O)c2ccc(OC)c(OC)c2)cc1OCC,> 100 µM
4,COC(=O)C(C#CCCCCC#CC(NC(=O)OCc1ccccc1)(C(=O)OC)C(F)(F)F)(NC(=O)OCc1ccccc1)C(F)(F)F (stereo unspecified),> 100 µM
5,N#C/C(c1nc2ccccc2[nH]1)=c1\s/c(=C/c2ccc(Cl)cc2)c(=O)n1-c1ccccc1,> 100 µM
6,COC(=O)CC1NC(=O)[C@@H]1C(C)O (stereo partly specified),> 100 µM
7,O=C1c2ccccc2OP(=O)(OCC(F)(F)F)OC1(C(F)(F)F)C(F)(F)F (stereo unspecified),> 100 µM
8,COc1ccc(N=Cc2ccc(N(CCC#N)S(=O)(=O)c3ccccc3)cc2)cc1,> 100 µM
9,CCOC(=O)/C=C/n1c2ccccc2c(=O)c2ccccc21,> 100 µM
10,Nc1nc(SCc2ccc([N+](=O)[O-])cc2)nc2c1ncn2C1OC(CO)C(O)C1O (stereo unspecified),> 100 µM
11,C=CCC(N(C)C(=O)[C@H](Cc1ccccc1)NC(=O)OCc1ccccc1)P(=O)(Oc1ccccc1)Oc1ccccc1 (stereo partly specified),> 100 µM

# Tested on: SF-539 CNS
# Test: growth of human tumour cells (NCI), 48 h
row,Compound,TGI
1,CN(C)C(=S)/N=c1\ssc(=S)n1Cc1ccccc1,1.49 µM
2,Cc1ccc(N2C(=O)CS/C2=C(\C#N)c2nc3ccccc3[nH]2)cc1,> 100 µM
3,CCOc1ccc(/C(Cl)=C(\C=O)c2ccc(OC)c(OC)c2)cc1OCC,> 100 µM
4,COC(=O)C(C#CCCCCC#CC(NC(=O)OCc1ccccc1)(C(=O)OC)C(F)(F)F)(NC(=O)OCc1ccccc1)C(F)(F)F (stereo unspecified),> 100 µM
5,N#C/C(c1nc2ccccc2[nH]1)=c1\s/c(=C/c2ccc(Cl)cc2)c(=O)n1-c1ccccc1,> 100 µM
6,COC(=O)CC1NC(=O)[C@@H]1C(C)O (stereo partly specified),> 100 µM
7,O=C1c2ccccc2OP(=O)(OCC(F)(F)F)OC1(C(F)(F)F)C(F)(F)F (stereo unspecified),> 100 µM
8,COc1ccc(N=Cc2ccc(N(CCC#N)S(=O)(=O)c3ccccc3)cc2)cc1,> 100 µM
9,CCOC(=O)/C=C/n1c2ccccc2c(=O)c2ccccc21,> 100 µM
10,C=CCC(N(C)C(=O)[C@H](Cc1ccccc1)NC(=O)OCc1ccccc1)P(=O)(Oc1ccccc1)Oc1ccccc1 (stereo partly specified),> 100 µM

# Tested on: SNB-78 CNS
# Test: growth of human tumour cells (NCI), 48 h
row,Compound,TGI
1,CN(C)C(=S)/N=c1\ssc(=S)n1Cc1ccccc1,> 100 µM
2,CCOc1ccc(/C(Cl)=C(\C=O)c2ccc(OC)c(OC)c2)cc1OCC,> 100 µM
3,COC(=O)C(C#CCCCCC#CC(NC(=O)OCc1ccccc1)(C(=O)OC)C(F)(F)F)(NC(=O)OCc1ccccc1)C(F)(F)F (stereo unspecified),> 100 µM
4,O=C1c2ccccc2OP(=O)(OCC(F)(F)F)OC1(C(F)(F)F)C(F)(F)F (stereo unspecified),> 100 µM
5,COc1ccc(N=Cc2ccc(N(CCC#N)S(=O)(=O)c3ccccc3)cc2)cc1,> 100 µM
6,Nc1nc(SCc2ccc([N+](=O)[O-])cc2)nc2c1ncn2C1OC(CO)C(O)C1O (stereo unspecified),> 100 µM
7,C=CCC(N(C)C(=O)[C@H](Cc1ccccc1)NC(=O)OCc1ccccc1)P(=O)(Oc1ccccc1)Oc1ccccc1 (stereo partly specified),> 100 µM

# Tested on: T-47D breast
# Test: growth of human tumour cells (NCI), 48 h
row,Compound,TGI
1,CN(C)C(=S)/N=c1\ssc(=S)n1Cc1ccccc1,> 31.6 µM

# Tested on: TK-10 renal
# Test: growth of human tumour cells (NCI), 48 h
row,Compound,TGI
1,CN(C)C(=S)/N=c1\ssc(=S)n1Cc1ccccc1,47.1 µM
2,Cc1ccc(N2C(=O)CS/C2=C(\C#N)c2nc3ccccc3[nH]2)cc1,> 100 µM
3,CCOc1ccc(/C(Cl)=C(\C=O)c2ccc(OC)c(OC)c2)cc1OCC,> 100 µM
4,COC(=O)C(C#CCCCCC#CC(NC(=O)OCc1ccccc1)(C(=O)OC)C(F)(F)F)(NC(=O)OCc1ccccc1)C(F)(F)F (stereo unspecified),> 100 µM
5,N#C/C(c1nc2ccccc2[nH]1)=c1\s/c(=C/c2ccc(Cl)cc2)c(=O)n1-c1ccccc1,> 100 µM
6,COC(=O)CC1NC(=O)[C@@H]1C(C)O (stereo partly specified),> 100 µM
7,O=C1c2ccccc2OP(=O)(OCC(F)(F)F)OC1(C(F)(F)F)C(F)(F)F (stereo unspecified),> 100 µM
8,COc1ccc(N=Cc2ccc(N(CCC#N)S(=O)(=O)c3ccccc3)cc2)cc1,> 100 µM
9,CCOC(=O)/C=C/n1c2ccccc2c(=O)c2ccccc21,> 100 µM
10,Nc1nc(SCc2ccc([N+](=O)[O-])cc2)nc2c1ncn2C1OC(CO)C(O)C1O (stereo unspecified),> 100 µM
11,C=CCC(N(C)C(=O)[C@H](Cc1ccccc1)NC(=O)OCc1ccccc1)P(=O)(Oc1ccccc1)Oc1ccccc1 (stereo partly specified),> 100 µM

# Tested on: XF 498 CNS
# Test: growth of human tumour cells (NCI), 48 h
row,Compound,TGI
1,Cc1ccc(N2C(=O)CS/C2=C(\C#N)c2nc3ccccc3[nH]2)cc1,> 100 µM
2,CCOc1ccc(/C(Cl)=C(\C=O)c2ccc(OC)c(OC)c2)cc1OCC,> 100 µM
3,N#C/C(c1nc2ccccc2[nH]1)=c1\s/c(=C/c2ccc(Cl)cc2)c(=O)n1-c1ccccc1,> 100 µM
4,COC(=O)CC1NC(=O)[C@@H]1C(C)O (stereo partly specified),> 100 µM
5,O=C1c2ccccc2OP(=O)(OCC(F)(F)F)OC1(C(F)(F)F)C(F)(F)F (stereo unspecified),> 100 µM
6,COc1ccc(N=Cc2ccc(N(CCC#N)S(=O)(=O)c3ccccc3)cc2)cc1,> 100 µM
7,CCOC(=O)/C=C/n1c2ccccc2c(=O)c2ccccc21,> 100 µM
8,Nc1nc(SCc2ccc([N+](=O)[O-])cc2)nc2c1ncn2C1OC(CO)C(O)C1O (stereo unspecified),> 100 µM
9,C=CCC(N(C)C(=O)[C@H](Cc1ccccc1)NC(=O)OCc1ccccc1)P(=O)(Oc1ccccc1)Oc1ccccc1 (stereo partly specified),> 100 µM
